Laboratory results taken from patent publication US10183011B2, “Anti-depression compounds” (Board of Regents of the University of Texas System, priority 2009, dated 2019).

Experiments:
[1] = tested on: U2OS cells; assay: Calcium ionophore A23187-induced loss of mitochondrial membrane potential (TMRM dye release); format: cell-based; conditions: TMRM dye
Text: FIG. 22A, FIG. 22B, FIG. 22C, FIG. 22D, FIG. 22E and FIG. 22F: Example 45 Compound Preserves Mitochondrial Membrane Potential in Parallel to Proneurogenic Activity U2OS cells were loaded with tetramethylrhodamine methyl ester (TMRM) dye and then exposed to the calcium ionophore A23187 either in the presence or absence of test compounds. Example 45 Compound (FIG. 22A) preserved mitochondrial membrane potential following exposure to the calcium ionophore A23187 in a dose-dependent manner. The protective effect of P7C3 was enantiomeric specific. […] Each compound was evaluated in triplicate with similar results.
Extensive evidence pioneered by the laboratory of Xiaodong Wang has shown that an intrinsic pathway leading to programmed cell death emanates from mitochondria (Liu et al., Cell 1996, 86, 147-157; Yang et al., Science 1997, 275, 1129-1132). With the help of the Wang lab, assays were established to test whether Example 45 Compound might protect mitochondria from calcium-induced dissolution (Distelmaier et al., Cytometry A 2008, 73, 129-138). Tetramethylrhodamine methyl ester (TMRM) is a cell-permeant, cationic red-orange fluorescent dye that is readily sequestered by active mitochondria. When loaded with TMRM dye, vehicle-only treated cells released the dye within 15 minutes of exposure to the calcium ionophore A23187. By contrast, dye release was prevented in cells exposed to as little as […] of Example 45 Compound (FIG. 18A).
Since P7C3 ameliorates the death of newborn neurons in the dentate gyrus in living mice, it is possible that its function might relate to mitochondrial integrity. Assays were established to test whether P7C3 might protect cultured U2OS cells from calcium-induced mitochondrial dissolution (Distelmaier et al., Cytometry A 2008, 73, 129-138). Tetramethylrhodamine methylester (TMRM) dye is sequestered by active mitochondria, and, when loaded with TMRM, vehicle-treated cells released the dye within 15 rain of exposure to the calcium ionophor A23 187.

[2] = tested on: neural precursor cells in the subgranular zone of the dentate gyrus; assay: In vivo pro-neurogenic efficacy/neuroprotection assay: intracerebroventricular infusion, BrdU incorporation in the dentate gyrus; set-up: species or system mouse (C57/Bl6); conditions: direct administration into the brain via Alzet minipumps for one week, 10 μM unless stated
Method: Compounds were evaluated for pro-neurogenic efficacy/neuroprotection in our standard in vivo assay at 10 μM concentration in four 12 week old adult male C57/Bl6 mice.
In an effort to identify compounds that might stimulate the birth of new neurons, or protect newborn neurons from cell death, a library of 1,000 compounds was screened using an in vivo assay. In the initial screen, compounds were randomly pooled into groups often and administered intracerebroventricularly at a constant rate over seven days into the left lateral ventricle of living mice via Alzet osmotic mini-pumps. Compounds were administered at a concentration of 10 μM for each molecule, making a total solute concentration of 100 μM. After seven days of infusion at a constant rate of 0.5 μL/hour, a total of 84 μL of volume will have left the pump (0.00084 μMoles) and entered the cerebrospinal fluid. The average volume of a brain from a 12 week old male, C57/B6 mouse in our study is 500 mm^3. […] Under these conditions, at the end of one week of infusion each compound would be present at 1.7 μMolar concentration. Since the actual amount of chemical compound in the brain is likely to be only a fraction of this predicted level, it is reasonable to estimate that compounds were administered at mid to low-nanomolar concentrations.
During compound infusion, animals were intraperitoneally (IP) injected daily with the thymidine analog, bromodeoxyuridine (BrdU), as a means of scoring the birth and survival of proliferating neural precursor cells in the hippocampus. Because both social interaction and voluntary exercise are known to stimulate hippocampal neurogenesis, mice were housed individually without access to running wheels throughout the screening period. Following the week-long period of compound administration, animals were perfused and sacrificed. Dissected brain tissue was fixed, embedded, sectioned, stained with antibodies to BrdU, and evaluated by light microcopy as a means of quantifying neurogenesis and survival of newborn neural precursor cells localized to the subgranular layer of the dentate gyrus on the brain hemisphere contralateral to the side of mini-pump cannulation. Every fifth section throughout the entire rostral-caudal extent of the hippocampus was analyzed, and the total number of BrdU+ cells was normalized against the measured volume of the dentate gyrus. Because both increased proliferation and survival of newborn neurons are important screening parameters, the screen was conducted over seven days in order to cast a wide net to detect molecules that might augment either process. […] Intracranial infusions of either fibroblast growth factor 2 (FGF-2) or artificial cerebral spinal fluid (aCSF) vehicle via the same, week-long protocol were employed as positive and negative controls. There was no difference in the number of BrdU-labeled cells in the dentate gyrus between mice subjected to surgical pump implantation and infusion with vehicle, and mice having had no surgery (FIG. 2). This confirmed the validity of the in vivo approach to assess the ability of intracerebroventricularly infused compounds to enhance hippocampal neurogenesis in the contralateral hemisphere.
In order to further study Example 45 Compound, an in vivo structure activity relationship (SAR) study was conducted using 37 chemical derivatives of the compound for pro-neurogenic activity via direct administration into the brain of adult mice via Alzet minipumps. Compounds were administered for one week at 10 uM into 4 mice per compound, along with daily IP injections of BrdU. Following compound administration, animals were perfused, sacrificed and subjected to sectioning, staining and light microscopy in order to monitor hippocampal neurogenesis localized to the subgranular layer of the dentate gyrus. Roughly 10% of the variant compounds retained pro-neurogenic activity indistinguishable from the parent compound. […]

[3] = tested on: cultured primary cortical neurons; assay: Mitochondrial membrane potential (TMRM) after A23187 in cultured primary cortical neurons; format: cell-based; conditions: rat E14 cortical neurons
Text: (§1) FIG. 23: Example 45 Compound Preserves Mitochondrial Membrane Potential in Cultured Primary Cortical Neurons. Cortical neurons cultures from rats on embryonic day 14 were loaded with tetramethylrhodamine methyl ester (TMRM) dye after 6 days of maturation. […] The remaining panels are from cells that were exposed to the calcium ionophore A23187 at time zero. With vehicle-alone, cortical neuron mitochondrial membrane potential was rapidly lost after exposure to the ionophore. […] Results shown are representative of 10 fields analyzed in each of 2 experimental runs for all conditions.
as §1, with “It was also examined whether” for “FIG. 23:”, “preserves mitochondrial membrane potential” for “Preserves Mitochondrial Membrane Potential”, “cultured primary cortical neurons (FIG. 23).” for “Cultured Primary Cortical Neurons.”

[4] = tested on: neural precursor cells in the subgranular zone of the dentate gyrus; conditions: dosed intracranially as a 10 micromolar solution; MacMillan et al., J Am. Chem. Soc. 2011; cited from earlier work
[5] = Solubility; format: physicochemical
[6] = tested on: hippocampal neurogenesis in the DG; assay: Comparison of P7C3 compounds and antidepressant drugs: DG BrdU labeling after i.c.v. infusion; format: in vivo, mouse; conditions: 10 μM i.c.v. for 7 days
Text: The neuroprotective efficacies of both P7C3 and P7C3-A20 were next compared to currently marketed antidepressant medications, using screening conditions identical to those by which P7C3 was originally discovered. This experiment was based on the antidepressant actions of P7C3 and P7C3-A20 characterized here, and the dependence on hippocampal neurogenesis for behavioral efficacy of some marketed antidepressant medications in mice.
Proneurogenic efficacies in the DG of P7C3 and P7C3A20 were compared to those of vehicle (artificial cerebrospinal fluid) and several marketed antidepressant compounds (Sigma-Aldrich, St. Louis, Mo.) according to established methods. In brief, mice were housed individually in cages without running wheels or any form of environmental enrichment, in order to create an environment predicted to have as low of a baseline level of hippocampal neurogenesis as possible. Compounds (10 μM, i.c.v.) were administered for 7 days via subcutaneously implanted Alzet osmotic minipumps connected to a cannula directed into the left lateral ventricle, with implantation day designated as day 0. Starting on day 1, mice also received daily injections of BrdU (50 mg/kg, i.p.) at 9 am daily, for 6 days. Twenty four hours after the sixth BrdU injection, mice were transcardially perfused as described above.

Structure (SMILES) | preservation of mitochondrial membrane potential [1] | increase of DG neurogenesis (BrdU labeling) over vehicle [6] | further results
COc1cccc(NCC(O)Cn2c3ccc(Br)cc3c3cc(Br)ccc32)c1 (single isomer, unassigned) [Example 1b, 1-(3,6-Dibromo-9H-carbazol-9-yl)-3-(3-methoxyphenylamino)-propan-2-ol] | Preservation of mitochondrial membrane potential in this assay was observed | – | –
COc1cccc(NCC(O)Cn2c3ccc(Br)cc3c3cc(Br)ccc32)c1 (single isomer, unassigned; (+)) [(+) enantiomer of Example 62 Compound, 1-(3,6-Dibromo-9H-carbazol-9-yl)-3-(3-methoxyphenylamino)-propan-2-ol] | observed only with the (+) enantiomer | – | pro-neurogenic activity in the in vivo hippocampal neurogenesis assay [2]: fully retained; pro-neurogenic activity in the in vivo hippocampal neurogenesis assay ([2]; listed as (+)-enantiomer of Example 62 Compound): retained potent pro-neurogenic activity
OC(CCNc1ccccc1)Cn1c2ccc(Br)cc2c2cc(Br)ccc21 (centres unmarked) [Example 21, 1-(3,6-dibromo-9H-carbazol-9-yl)-4-(phenylamino)butan-2-ol] | displayed less protective effect | – | –
Cc1cc(C)n(CC(O)Cn2c3ccc(Br)cc3c3cc(Br)ccc32)n1 (centres unmarked) [Example 33, 1-(3,6-dibromo-9H-carbazol-9-yl)-3-(3,5-dimethyl-1H-pyrazol-1-yl)propan-2-ol] | displayed less protective effect | – | preservation of mitochondrial membrane potential [3]: less effective in preserving mitochondrial membrane potential at any dose tested
OC(CNc1ccccc1)Cn1c2ccccc2c2ccccc21 (centres unmarked) [Example 76, 1-(9H-carbazol-9-yl)-3-(phenylamino)propan-2-ol] | – | – | pro-neurogenic activity of a commercial sample in the neurogenesis assay [4]: indistinguishable from vehicle; pro-neurogenic activity in the in vivo hippocampal neurogenesis assay [2]: found to be active; solubility [5]: low solubility
Fc1ccc([C@@H]2CCNC[C@H]2COc2ccc3c(c2)OCO3)cc1 [paroxetine] | – | did not affect the magnitude of neurogenesis | –
NNCCc1ccccc1 [phenelzine] | – | ~52% | –
CN[C@H]1CC[C@@H](c2ccc(Cl)c(Cl)c2)c2ccccc21 [sertraline] | – | did not affect the magnitude of neurogenesis | –
COc1ccc(C(CN(C)C)C2(O)CCCCC2)cc1 (centres unmarked) [venlafaxine] | – | did not affect the magnitude of neurogenesis | –
